Data: patent publication US7973024B2, “24-sulfoximine vitamin D3 compounds” (Cyctochroma Inc., priority 2002, dated 2011)

Tests used:
Assay type in all cases: cell-based
SCC-25 cells = assay: [3H]-thymidine proliferation assay with SCC-25 cells; conditions: together with calcitriol, three days, [3H]-thymidine 6 h
Protocol: 1. Preparation of Cell Suspension • When SCC-25 cells were 70-80% confluent, aspirated media. Washed the cells with 1×PBS. Trypsinized with trypsin-EDTA from the plate, collected cells from the tissue culture flask, centrifuged (500×g, 5 min) and resuspended in media.
2. Cell Plating. • Counted the cells and adjusted the cell density to 10,000/ml. Added 200 μl per well in a 96 well plate. Incubated plate for 24 h at 37° C. in a humidified atmosphere plus 5% CO2. Aspirated used media and replaced with 150 μl per well with media.
3. Compound Addition. • Added 25 μl of 1α,25(OH)2D3 (final concentration 10^−6M, 10^−7 M, 10^−8 M, M, 10^−10 M, 10^−11 M) into each designated well. Added 25 μl of substrate (final concentration 10^−7 M, 5×10^−8 M, 10^−8 M or 10^−9 M) into each designated well. Incubated plates for 3 days at 37° C. in a humidified atmosphere plus 5% CO2.
4. ^3H-Thymidine Incorporation. • Added ^3H-thymidine at 0.02 μCi per well and incubated at 37° C. in a humidified atmosphere plus 5% CO2 for 6 h.
5. Plate Harvesting. • Aspirated all media and washed cells with 1×PBS. Trypsinized cells for 30 min at 37° C. in a humidified atmosphere plus 5% CO2. Harvested cells onto a 96 well filter plate (Millipore) using a Tomtec Cell Harvestor, according to manufacturers instructions.
6. Scintillation Counting. • Added 25 μl of scintillation fluid per well. Counted the plate using a scintillation counter.

[1] = test system: normal human epidermal keratinocytes (NHEK); assay: Human epidermal keratinocyte proliferation assay; conditions: together with calcitriol, three days, [3H]-thymidine 18 h
Protocol: 1. HEK Cell Media • Supplemented KGM media with additional reagents provided in the bullet kit as per supplier's instructions. • Added calcium chloride to final concentration of 0.3 mM.
2. Calcitriol Dilutions • Stock: Calcitriol (1 mM)
3. Substrate Dilutions • Stock: substrate (0.1 mM)
1. Cell Culture • Thawed one vial of HEK cells containing at least 500 K, and divided into 5 25 cm^2 flasks with 5 ml HEK cell media. 24 h later, removed media and replenished with 5 ml fresh media. Changed media again 48 h later.
2. Preparation of Cell Suspension • On the day of the assay, washed the monolayer of HEK cells once with 1×PBS buffer (provided in reagent pack) and then trypsinized for 5 min at 37° C. Added trypsin neutralizing solution (provided in reagent pack). Collected cells into tube, centrifuged cells (500×g, 5 min) and resuspended in HEK cell media. Counted cells and adjusted density to 150,000 cells/ml. Diluted cells further 1:30 with HEK cell media.
2. Cell Plating • Added 150 μl of cell suspension to appropriately labelled wells of a 96-well plate. Incubated plate for 48 h at 37° C. in a humidified atmosphere containing 5% CO2 for adherence of cells to wells.
3. […]
4. Cell Harvesting and Counting • Added 0.2 μCi/well of [^3H]-thymidine in 20 μl of HEK cell media to each well. Incubated plates for 18 h at 37° C. in a humidified atmosphere containing 5% CO2. Aspirated media and washed with 1×PBS. Trypsinize-cells for 30 min at 37° C. in a humidified atmosphere containing 5% CO2. Harvested cells onto filter plates using Tomtec cell harvester as per manufacturer's instructions. Added 25 μl scintillation fluid per well. Measured radioactivity using a scintillation counter. All values were normalized for background.

CYP24 = target: T1, CYP24 (Homo sapiens, UniProt Q07973); assay: CYP24 enzyme assay (induced HPK1A-ras cells); conditions: HPK1A-ras cells induced with 1,25(OH)2D3; [3H]-1,25(OH)2D3 substrate, 2 hour
T1 construct: expressed in transfected cells
T1 sequence (Q07973 36-514): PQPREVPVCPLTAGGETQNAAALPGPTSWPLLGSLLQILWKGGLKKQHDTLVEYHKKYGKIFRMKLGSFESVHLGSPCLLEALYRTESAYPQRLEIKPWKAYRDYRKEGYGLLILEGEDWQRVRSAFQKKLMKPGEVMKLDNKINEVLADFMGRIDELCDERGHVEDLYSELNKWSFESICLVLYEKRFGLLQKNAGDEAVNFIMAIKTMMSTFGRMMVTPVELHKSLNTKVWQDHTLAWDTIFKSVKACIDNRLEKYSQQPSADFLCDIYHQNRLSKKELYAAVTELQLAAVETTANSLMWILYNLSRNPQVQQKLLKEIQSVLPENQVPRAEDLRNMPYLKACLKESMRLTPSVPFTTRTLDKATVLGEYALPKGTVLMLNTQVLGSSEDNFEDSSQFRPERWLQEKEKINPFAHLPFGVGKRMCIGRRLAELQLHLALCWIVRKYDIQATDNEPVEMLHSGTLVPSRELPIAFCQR
Protocol: 1.25(OH)2D3 10^−5 M (Sigma, St. Louis, Mo.);
Preparation of 10^−5 M working solution is as follows:
Dissolve 1 mg of 1,25(OH)2D3 into 480 μl of isopropanol to make 5×10^−3 M stock solution. Store at −70° C. until needed. Aliquot 1 μl of 1.25(OH)2D3 5×10^−3 M stock solution to 499 μl of isopropanol to make 1.25(OH)2D3 10^−5 working solution. Store at −20° C. until needed. […] Induction of HPKIA-ras cells (The day before assay) • When the HPK1A-ras cells were 80-90% confluent, added 1 μL 10^−5 M 1.25(OH)2D3 to 1 mL medium in the plate (final concentration is 10^−8 M). • 2. Preparation of cell suspension • After 18 to 20 hours induction, removed the medium and washed the cell twice with PBS. Then tripsinized the cells from plate, centrifuged (2,000 rpm, 5 min) and suspended cells pellet in DMEM medium+1% BSA. • Counted the cells and adjusted cells density to 250,000/150 μL, added 150 μL cell suspension to each well in 48-well plate (including 3 wells as a no cell control, and 3 well cells without drug or inhibitor as controls). • 3. […] Kept the plate in 37° C. for 10 min. • 4. Preparation of substrate • For each ml required, added 972 μl of DMEM+1% BSA medium, 20 μl of 3H-1,25(OH)2D3, and 8 μl of 100 nM DPPD to a tube and vortexed. • 5. Incubation • Added 25 μL substrate to each well, incubated the plate at 37° C. for 2 hour. • Added 25 μL substrate to counting plate (2 well) as a total count. • 6. Lipid Extraction and Counting • Added 500 μL methanol to each well to stop the reaction, transferred them to tube. • Added 250 μL dichloromethane and vortex. • Added 250 μL dichloromethane and […] saturated KCI, and vortex. • Centrifuged at 4000 rpm for 5 min. • Transferred 100 μL of aqueous phase (upper phase) to counting plastic counting plate. Added 600 μL of scintillation fluid to each well. Counted the plate in scintillation counter. • 7. Calculation Enzyme Activity • CPM of cell control after subtraction of CPM of non-cell control (NCC) was as 100% enzyme activity.
• Dilution of test compounds • Stock 10^−3 M

Structure (SMILES) | inhibition of proliferation of SCC-25 cells (SCC-25 cells) | inhibition of proliferation of normal human epidermal keratinocytes (NHEK) [1] | IC50 (CYP24) [nM]
C[C@H](CCS(=N)(=O)c1ccccc1)[C@H]1CC[C@H]2/C(=C/C=C3C[C@@H](O)C[C@H](O)C3)CCC[C@]12C (single isomer, unassigned) [I(i), 24-Phenyl Sulfoximine 19-Nor-Vitamin-D3] | act to inhibit the proliferation | act to inhibit the proliferation | –
C=C1/C(=C\C=C2/CCC[C@]3(C)[C@@H]([C@H](C)CCS(=N)(=O)c4ccccc4)CC[C@@H]23)C[C@@H](O)C[C@@H]1O (single isomer, unassigned) [I(a)] | act to inhibit the proliferation | act to inhibit the proliferation | 5
C=C1/C(=C\C=C2/CCC[C@]3(C)[C@@H]([C@H](C)CCS(=O)(=NC)c4ccccc4)CC[C@@H]23)C[C@@H](O)C[C@@H]1O (single isomer, unassigned) [I(e)] | act to inhibit the proliferation | act to inhibit the proliferation | 66
C=C1/C(=C\C=C2/CCC[C@]3(C)[C@@H]([C@H](C)CCS(=O)(=NC)c4ccccc4)CC[C@@H]23)C[C@@H](O)C[C@@H]1O (single isomer, unassigned) [I(g)] | act to inhibit the proliferation | – | 20
